Assay results from the supplement of paper PMC4862054.

tested on: BT-474; assay: normalised response (% of control), CellTiter-Glo; higher = more viable cells (100 = DMSO, 0 = benzethonium chloride kill control); conditions: incubation time: 72 h
Experimental: (§1)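 DSRT, 72 h incubation, CellTox Green / CellTiter-Glo readout. Signal is normalised to DMSO and benzethonium chloride controls. Value is the normalised response at dose 3.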

Compound	normalised response [%]
CC1=C(/C=C/C(C)=C/C=C/C(C)=C/C(=O)O)C(C)(C)CCC1 [Tretinoin] (100 nM)	92.7
Oc1ncc(N(CCCl)CCCl)c(O)n1 [Uracil mustard] (100 nM)	106
COc1cc2c(NC3CCN(C(C)C)CC3)nc(C3CCCCC3)nc2cc1OCCCN1CCCC1 [UNC0638] (100 nM)	94.1
COc1cc([C@@H]2c3cc4c(cc3[C@@H](O[C@@H]3O[C@@H]5CO[C@@H](c6cccs6)O[C@H]5[C@H](O)[C@H]3O)[C@H]3COC(=O)[C@H]23)OCO4)cc(OC)c1O [Teniposide] (100 nM)	87.8
CC[C@H](C)C(=O)O[C@H]1C[C@H](O)C=C2C=C[C@H](C)[C@H](CC[C@@H](O)C[C@@H](O)CC(=O)O)[C@H]21 [Pravastatin] (100 nM)	99.2
C[C@H]1C[C@@H]2[C@H]([C@@H](O)C[C@@]3(C)[C@H]2CC[C@]3(O)C(=O)CO)[C@@]2(C)C=CC(=O)C=C12 [Methylprednisolone] (100 nM)	152

tested on: BT-549; assay: as above; conditions: incubation time: 72 h
Experimental: as §1

Compound	normalised response [%]
CCc1cncnc1N1CCN(Cc2nc3ccc(C(F)(F)F)cc3[nH]2)CC1 (100 nM)	92.9
COc1cc2nccc(Oc3ccc(NC(=O)Nc4cc(C)on4)c(Cl)c3)c2cc1OC [Tivozanib] (100 nM)	106
O=C(O)C(=O)O.[NH-][C@@H]1CCCC[C@H]1[NH-].[Pt+2] [Oxaliplatin] (100 nM)	108
CC1=C(/C=C/C(C)=C/C=C/C(C)=C/C(=O)O)C(C)(C)CCC1 [Tretinoin] (100 nM)	102
Oc1ncc(N(CCCl)CCCl)c(O)n1 [Uracil mustard] (100 nM)	105
COc1cc2c(NC3CCN(C(C)C)CC3)nc(C3CCCCC3)nc2cc1OCCCN1CCCC1 [UNC0638] (100 nM)	101
COc1cc([C@@H]2c3cc4c(cc3[C@@H](O[C@@H]3O[C@@H]5CO[C@@H](c6cccs6)O[C@H]5[C@H](O)[C@H]3O)[C@H]3COC(=O)[C@H]23)OCO4)cc(OC)c1O [Teniposide] (100 nM)	68
CC[C@H](C)C(=O)O[C@H]1C[C@H](O)C=C2C=C[C@H](C)[C@H](CC[C@@H](O)C[C@@H](O)CC(=O)O)[C@H]21 [Pravastatin] (100 nM)	101
C[C@H]1C[C@@H]2[C@H]([C@@H](O)C[C@@]3(C)[C@H]2CC[C@]3(O)C(=O)CO)[C@@]2(C)C=CC(=O)C=C12 [Methylprednisolone] (100 nM)	101

tested on: MFM-223; assay: as above; conditions: incubation time: 72 h
Experimental: as §1

Compound	normalised response [%]
CCc1cncnc1N1CCN(Cc2nc3ccc(C(F)(F)F)cc3[nH]2)CC1 (100 nM)	110
COc1cc2nccc(Oc3ccc(NC(=O)Nc4cc(C)on4)c(Cl)c3)c2cc1OC [Tivozanib] (100 nM)	86.1
O=C(O)C(=O)O.[NH-][C@@H]1CCCC[C@H]1[NH-].[Pt+2] [Oxaliplatin] (100 nM)	94.3
CC1=C(/C=C/C(C)=C/C=C/C(C)=C/C(=O)O)C(C)(C)CCC1 [Tretinoin] (100 nM)	93.7
Oc1ncc(N(CCCl)CCCl)c(O)n1 [Uracil mustard] (100 nM)	104
COc1cc2c(NC3CCN(C(C)C)CC3)nc(C3CCCCC3)nc2cc1OCCCN1CCCC1 [UNC0638] (100 nM)	88.6
COc1cc([C@@H]2c3cc4c(cc3[C@@H](O[C@@H]3O[C@@H]5CO[C@@H](c6cccs6)O[C@H]5[C@H](O)[C@H]3O)[C@H]3COC(=O)[C@H]23)OCO4)cc(OC)c1O [Teniposide] (100 nM)	108
CC[C@H](C)C(=O)O[C@H]1C[C@H](O)C=C2C=C[C@H](C)[C@H](CC[C@@H](O)C[C@@H](O)CC(=O)O)[C@H]21 [Pravastatin] (100 nM)	88.8
C[C@H]1C[C@@H]2[C@H]([C@@H](O)C[C@@]3(C)[C@H]2CC[C@]3(O)C(=O)CO)[C@@]2(C)C=CC(=O)C=C12 [Methylprednisolone] (100 nM)	109

tested on: HDQ-P1; assay: as above; conditions: incubation time: 72 h
Experimental: as §1

Compound	normalised response [%]
CCc1cncnc1N1CCN(Cc2nc3ccc(C(F)(F)F)cc3[nH]2)CC1 (100 nM)	97.7
COc1cc2nccc(Oc3ccc(NC(=O)Nc4cc(C)on4)c(Cl)c3)c2cc1OC [Tivozanib] (100 nM)	104
O=C(O)C(=O)O.[NH-][C@@H]1CCCC[C@H]1[NH-].[Pt+2] [Oxaliplatin] (100 nM)	104
CC1=C(/C=C/C(C)=C/C=C/C(C)=C/C(=O)O)C(C)(C)CCC1 [Tretinoin] (100 nM)	100
Oc1ncc(N(CCCl)CCCl)c(O)n1 [Uracil mustard] (100 nM)	104
COc1cc2c(NC3CCN(C(C)C)CC3)nc(C3CCCCC3)nc2cc1OCCCN1CCCC1 [UNC0638] (100 nM)	97
COc1cc([C@@H]2c3cc4c(cc3[C@@H](O[C@@H]3O[C@@H]5CO[C@@H](c6cccs6)O[C@H]5[C@H](O)[C@H]3O)[C@H]3COC(=O)[C@H]23)OCO4)cc(OC)c1O [Teniposide] (100 nM)	96.4
CC[C@H](C)C(=O)O[C@H]1C[C@H](O)C=C2C=C[C@H](C)[C@H](CC[C@@H](O)C[C@@H](O)CC(=O)O)[C@H]21 [Pravastatin] (100 nM)	98
C[C@H]1C[C@@H]2[C@H]([C@@H](O)C[C@@]3(C)[C@H]2CC[C@]3(O)C(=O)CO)[C@@]2(C)C=CC(=O)C=C12 [Methylprednisolone] (100 nM)	90.5

tested on: CAL-51; assay: as above; conditions: incubation time: 72 h
Experimental: as §1

Compound	normalised response [%]
CCc1cncnc1N1CCN(Cc2nc3ccc(C(F)(F)F)cc3[nH]2)CC1 (100 nM)	88.2
COc1cc2nccc(Oc3ccc(NC(=O)Nc4cc(C)on4)c(Cl)c3)c2cc1OC [Tivozanib] (100 nM)	99.6
O=C(O)C(=O)O.[NH-][C@@H]1CCCC[C@H]1[NH-].[Pt+2] [Oxaliplatin] (100 nM)	77
CC1=C(/C=C/C(C)=C/C=C/C(C)=C/C(=O)O)C(C)(C)CCC1 [Tretinoin] (100 nM)	87.7
Oc1ncc(N(CCCl)CCCl)c(O)n1 [Uracil mustard] (100 nM)	110
COc1cc2c(NC3CCN(C(C)C)CC3)nc(C3CCCCC3)nc2cc1OCCCN1CCCC1 [UNC0638] (100 nM)	97.3
COc1cc([C@@H]2c3cc4c(cc3[C@@H](O[C@@H]3O[C@@H]5CO[C@@H](c6cccs6)O[C@H]5[C@H](O)[C@H]3O)[C@H]3COC(=O)[C@H]23)OCO4)cc(OC)c1O [Teniposide] (100 nM)	78.5
